Measured values from ChEMBL document CHEMBL1159193, “Synthesis and in vitro anti-human immunodeficiency virus activity of artemisinin (qinghaosu)-related trioxanes” (Bioorg Med Chem Lett, 1994).
pEC50, pIC50: −log10 of the molar value.

Experiments:
[1] = In vitro anti-HIV activity in human peripheral blood mononuclear (PBM) cells acutely infected with HIV-1 LAI; type: functional
[2] = In vitro cytotoxicity assessed by measuring [3H]-thymidine uptake in human peripheral blood mononuclear (PBM) cells; type: functional

Structure (SMILES)	pEC50 [1]	pIC50 [2]
C[C@@H]1CC[C@H]2[C@@H](C)CO[C@@H]3O[C@]4(C)CC[C@@H]1[C@]32OO4 [DEOXOARTEMISININ]	< 4.00	< 4.00
CCO[C@H]1O[C@@H]2O[C@@]3(C)CC[C@H]4[C@H](C)CC[C@@H]([C@H]1C)[C@@]24OO3 [ARTEMOTIL]	4.39	4.51
COC(=O)c1ccc([C@H]2OOC3(CCC[C@@H](C)C3)[C@@H](OC)O2)cc1 (some centres undefined)	< 4.00	< 4.00
CCCC[C@H]1O[C@@H]2O[C@]3(C)CC[C@H]4[C@H](C)CC[C@@H]([C@H]1C)[C@@]24OO3	5.33	5.89
C[C@@H]1CC[C@H]2[C@@H](C)CCO[C@@H]3O[C@]4(C)CC[C@@H]1[C@]32OO4	4.30	< 4.00
C[C@@H]1CC[C@H]2[C@@H](C)C(=O)O[C@@H]3O[C@@]4(C)CC[C@@H]1[C@]32OO4 [ARTEMISININ]	< 4.00	< 4.00
Cc1cn([C@H]2C[C@H](N=[N+]=[N-])[C@@H](CO)O2)c(=O)[nH]c1=O [ZIDOVUDINE]	8.40	< 4.00
